Measured values from patent publication US7671027B2, “Use of GnRH agonists to support the luteal phase during infertility treatment” (PregLem S.A., priority 2002, dated 2010).
Like-named read-outs stand apart in the source and are kept apart here. Square brackets hold non-standard residues; d marks the D form. pGlu = O=C1CC[C@@H](C(=O)O)N1

Assays:
[1] = tested on: patients suffering from unexplained infertility, mild to moderate endometrioisis or partner sperm alteration; assay: Dose finding study: luteal phase duration and pregnancy outcome after ovarian stimulation and IUI; format: in vivo; settings: for Positive pregnancy test: patients positive/total, day 14 of luteal phase; for Clinical pregnancy: patients/total
Source text: (§1) Patients suffering from unexplained infertility, or from infertility resulting from mild to moderate endometrioisis, or an infertility resulting from a mild or moderate alteration of their partner sperm, and whom have not conceived despite regular sexual intercourses during a period of one or two years, usually undergo medical assistance. The most often used treatment is ovarian stimulation coupled to an IUI (Hughes G. H. 1997, The effectiveness of ovulation induction and intra-uterine insemination in the treatment of persistent infertility: a meta-analysis. Hum Reprod. 12: 1865-1872).
(§2) A prospective, randomised, parallel groups dose finding study was conducted in this patient population.
(§3) The number and the size of each follicle was recorded.
(§4) Between 12 and 48 hours after triggering ovulation, the patient's partner provided a sperm sample, after 2 to 5 days of abstinence. Motile sperm cells were separated from seminal fluid, dead sperm cells, leucocytes, and cellular debris using a suitable method such as a “swim-up” or a Percol gradient. On that same day, the motile sperm cell suspension was used to perform an intra-uterine insemination with a catheter inserted into the uterine cavity via the cervix. The procedure may be repeated on the next day.

[2] = tested on: patients who did not conceive; assay: Dose finding study: luteal phase serum progesterone levels; format: in vivo, human
Source text: as §1, §2, §3, §4

[3] = tested on: patients who did not conceive; assay: Dose finding study: luteal phase serum oestradiol levels; format: in vivo, human
Source text: as §1, §2, §3, §4

[4] = tested on: patients in ART treatments; settings: cited from earlier work
[5] = tested on: patients (hypothalamic amenorrhea); settings: nasal administration every 4 hours after IV GnRH induction of ovulation; in half of the patients; cited from earlier work
[6] = Day 0, buserelin 100 μg/2 days IN
[7] = Day 0, buserelin 100 μg/3 days IN
[8] = Day 1, buserelin 100 μg/2 days IN
[9] = Day 1, buserelin 100 μg/3 days IN
[10] = Day 4, buserelin 100 μg/2 days IN
[11] = Day 4, buserelin 100 μg/3 days IN
[12] = Day 7, buserelin 100 μg/2 days IN
[13] = Day 7, buserelin 100 μg/3 days IN
[14] = Day 9, buserelin 100 μg/2 days IN
[15] = Day 9, buserelin 100 μg/3 days IN
[16] = Day 11, buserelin 100 μg/2 days IN
[17] = Day 11, buserelin 100 μg/3 days IN
[18] = Day 11, buserelin 100 μg/day IN
[19] = Day 14, buserelin 100 μg/2 days IN
[20] = Day 14, buserelin 100 μg/3 days IN
[21] = Day 14, buserelin 100 μg/day IN

Molecule: CCNC(=O)[C@@H]1CCCN1C(=O)[C@H](CCCNC(=N)N)NC(=O)[C@H](CC(C)C)NC(=O)[C@@H](COC(C)(C)C)NC(=O)[C@H](Cc1ccc(O)cc1)NC(=O)[C@H](CO)NC(=O)[C@H](Cc1c[nH]c2ccccc12)NC(=O)[C@H](Cc1cnc[nH]1)NC(=O)[C@@H]1CCC(=O)N1 [Buserelin, <Glu^1-His^2-Trp^3-Ser^4-Tyr^5-D-Ser(t-But)^6-Leu^7-Arg^8-Pro^9-EA (SEQ ID NO: 2)]
- luteal support, summary of tables 1-3 ([1]; buserelin 100 μg IN once a day for 14 days, compared with the other groups): a longer luteal phase, higher progesterone and oestradiol levels in late luteal phase and a trend toward a higher clinical pregnancy rate
- Positive pregnancy test ([1]; buserelin 100 μg/2 days IN): 2/6
- Clinical pregnancy ([1]; buserelin 100 μg/2 days IN): 1/6
- Positive pregnancy test ([1]; buserelin 100 μg/3 days IN): 1/5
- Clinical pregnancy ([1]; buserelin 100 μg/3 days IN): 0/5
- Positive pregnancy test ([1]; buserelin 100 μg/day IN): 2/6
- Clinical pregnancy ([1]; buserelin 100 μg/day IN): 2/6
- Luteal phase duration (mean ± SD) ([1]; buserelin 200 μg IN trigger, then 100 μg/day IN for 14 days, n=6): 15.3 ± 0.5 days
- adverse local reactions of intra-nasal administration ([1]; self-administered intra-nasal buserelin 100 μg): did not carry the risk of adverse local reactions such as pain and abces
- Luteal phase serum progesterone level (mean ± SD) [2, 6]: 0.9 ± 0.7 ng/mL
- Luteal phase serum progesterone level (mean ± SD) [2, 7]: 0.7 ± 0.3 ng/mL
- Luteal phase serum progesterone level (mean ± SD) ([2]; Day 0, buserelin 100 μg/day IN): 1.1 ± 0.4 ng/mL
- Luteal phase serum progesterone level (mean ± SD) [2, 8]: 1.3 ± 0.8 ng/mL
- Luteal phase serum progesterone level (mean ± SD) [2, 9]: 0.9 ± 0.2 ng/mL
- Luteal phase serum progesterone level (mean ± SD) ([2]; Day 1, buserelin 100 μg/day IN): 1.2 ± 0.3 ng/mL
- Luteal phase serum progesterone level (mean ± SD) [2, 10]: 7.6 ± 3.2 ng/mL
- Luteal phase serum progesterone level (mean ± SD) [2, 11]: 5.1 ± 2.0 ng/mL
- Luteal phase serum progesterone level (mean ± SD) ([2]; Day 4, buserelin 100 μg/day IN): 6.2 ± 2.3 ng/mL
- Luteal phase serum progesterone level (mean ± SD) [2, 12]: 11.7 ± 4.6 ng/mL
- Luteal phase serum progesterone level (mean ± SD) [2, 13]: 11.5 ± 3.6 ng/mL
- Luteal phase serum progesterone level (mean ± SD) ([2]; Day 7, buserelin 100 μg/day IN): 13.9 ± 2.9 ng/mL
- Luteal phase serum progesterone level (mean ± SD) [2, 14]: 8.2 ± 6.4 ng/mL
- Luteal phase serum progesterone level (mean ± SD) [2, 15]: 10.8 ± 6.6 ng/mL
- Luteal phase serum progesterone level (mean ± SD) ([2]; Day 9, buserelin 100 μg/day IN): 16.2 ± 7.5 ng/mL
- Luteal phase serum progesterone level (mean ± SD) [2, 16]: 8.3 ± 6.5 ng/mL
- Luteal phase serum progesterone level (mean ± SD) [2, 17]: 10.0 ± 3.7 ng/mL
- Luteal phase serum progesterone level (mean ± SD) [2, 18]: 14.1 ± 3.3 ng/mL
- Luteal phase serum progesterone level (mean ± SD) [2, 19]: 5.8 ± 4.7 ng/mL
- Luteal phase serum progesterone level (mean ± SD) [2, 20]: 3.3 ± 2.4 ng/mL
- Luteal phase serum progesterone level (mean ± SD) [2, 21]: 8.4 ± 4.3 ng/mL
- Luteal phase serum oestradiol level (mean ± SD) [3, 6]: 247 ± 79 pg/mL
- Luteal phase serum oestradiol level (mean ± SD) [3, 7]: 182 ± 76 pg/mL
- Luteal phase serum oestradiol level (mean ± SD) ([3]; Day 0, buserelin 100 μg/day IN): 175 ± 071 pg/mL
- Luteal phase serum oestradiol level (mean ± SD) [3, 8]: 164 ± 75 pg/mL
- Luteal phase serum oestradiol level (mean ± SD) [3, 9]: 325 ± 160 pg/mL
- Luteal phase serum oestradiol level (mean ± SD) [3, 10]: 139 ± 77 pg/mL
- Luteal phase serum oestradiol level (mean ± SD) [3, 11]: 106 ± 61 pg/mL
- Luteal phase serum oestradiol level (mean ± SD) ([3]; Day 4, buserelin 100 μg/day IN): 179 ± 101 pg/mL
- Luteal phase serum oestradiol level (mean ± SD) [3, 12]: 70 ± 19 pg/mL
- Luteal phase serum oestradiol level (mean ± SD) [3, 13]: 144 ± 118 pg/mL
- Luteal phase serum oestradiol level (mean ± SD) ([3]; Day 7, buserelin 100 μg/day IN): 163 ± 30 pg/mL
- Luteal phase serum oestradiol level (mean ± SD) [3, 14]: 65 ± 15 pg/mL
- Luteal phase serum oestradiol level (mean ± SD) [3, 15]: 109 ± 88 pg/mL
- Luteal phase serum oestradiol level (mean ± SD) ([3]; Day 9, buserelin 100 μg/day IN): 232 ± 77 pg/mL
- Luteal phase serum oestradiol level (mean ± SD) [3, 16]: 75 ± 4 pg/mL
- Luteal phase serum oestradiol level (mean ± SD) [3, 17]: 123 ± 61 pg/mL
- Luteal phase serum oestradiol level (mean ± SD) [3, 18]: 200 ± 30 pg/mL
- Luteal phase serum oestradiol level (mean ± SD) [3, 19]: 124 ± 68 pg/mL
- Luteal phase serum oestradiol level (mean ± SD) [3, 20]: 82 ± 31 pg/mL
- Luteal phase serum oestradiol level (mean ± SD) [3, 21]: 154 ± 85 pg/mL

Molecule: CC(=O)[C@H]1CC[C@H]2[C@@H]3CCC4=CC(=O)CC[C@]4(C)[C@H]3CC[C@]12C [progesterone]
- relative efficacy of IM progesterone vs vaginal progesterone ([4]; C.I. of 1.02-1.75, in favor of the IM route (p<0.05)): 1.33
- odds to obtain a pregnancy compared to no luteal support ([4]; progesterone IM, CI: 1.36-4.27, p<0.05): 2.38
- odds to obtain a pregnancy compared to no luteal support ([4]; vaginal route, C.I. of 0.95-4.67 (NS)): 2.11

Molecule: <Glu^1-His^2-Trp^3-Ser^4-Tyr^5-His^6-Leu^7-Arg^8-Pro^9-Gly^10-NH2 (SEQ ID NO: 1) ([pGlu]HWSYHLRPG-NH2; SMILES CC(C)C[C@H](NC(=O)[C@H](Cc1c[nH]cn1)NC(=O)[C@H](Cc1ccc(O)cc1)NC(=O)[C@H](CO)NC(=O)[C@H](Cc1c[nH]c2ccccc12)NC(=O)[C@H](Cc1c[nH]cn1)NC(=O)[C@@H]1CCC(=O)N1)C(=O)N[C@@H](CCCNC(=N)N)C(=O)N1CCC[C@H]1C(=O)NCC(N)=O; listed as Homo sapiens) [native GnRH, synthetic, native GnRH decapeptide]
- support of the luteal phase [5]: completely ineffective
